Reference: patent publication US8952024B2, “Herbicidal pyrimidone derivatives” (E I du Pont de Nemours and Company, priority 2009, dated 2015)

Columns and labels:
Format in all cases: in vivo
[1] = system: bermudagrass (Cynodon dactylon); test: Test B pre-/postemergence plant response; conditions: for Plant response rating, Bermudagrass: Postemergence
How it was run: (§1)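 Visually scored on a 0 to 100 scale after 13 to 15 days in greenhouse versus controls. Treatments were preemergence on seeded loam/sand soil and postemergence on 1- to 4-leaf plants.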

[2] = system: cocklebur (Xanthium strumarium); test: Test B pre-/postemergence plant response
How it was run: as §1

[3] = system: goosegrass (Eleusine indica); test: Test B pre-/postemergence plant response; conditions: for Plant response rating, Goosegrass: Postemergence
How it was run: as §1

[4] = system: green foxtail (Setaria viridis); test: Test B pre-/postemergence plant response; conditions: for Plant response rating, Foxtail, Green: Postemergence
How it was run: as §1

[5] = system: lambsquarters (Chenopodium album); test: Test B pre-/postemergence plant response; conditions: for Plant response rating, Lambsquarters: Postemergence
How it was run: as §1

[6] = system: large crabgrass (Digitaria sanguinalis); test: Test B pre-/postemergence plant response; conditions: for Plant response rating, Crabgrass, Large: Postemergence
How it was run: as §1

[7] = system: morningglory (Ipomoea coccinea); test: Test B pre-/postemergence plant response; conditions: for Plant response rating, Morningglory: Postemergence
How it was run: as §1

[8] = system: wheat (Triticum aestivum); test: Test B pre-/postemergence plant response; conditions: for Plant response rating, Wheat: Postemergence
How it was run: as §1

wild oat (Avena fatua) = test: Test B pre-/postemergence plant response; conditions: for Plant response rating, Oat, Wild: Postemergence
How it was run: as §1

[9] = system: yellow nutsedge (Cyperus esculentus); test: Test B pre-/postemergence plant response; conditions: for Plant response rating, Nutsedge, Yellow: Postemergence
How it was run: as §1

[10] = system: barnyardgrass (Echinochloa crus-galli); test: Test B flooded paddy test; conditions: for Plant response rating, Barnyardgrass: Flood (flooded paddy test), 13 to 15 days
How it was run: (§2)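 Visual scores run from 0 (no effect) to 100 (complete control), assigned by comparison with controls 13 to 15 days after treatment. Test compounds went straight into water standing 3 cm above the soil, around plants at the 2-leaf stage kept in a greenhouse.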

[11] = system: umbrella sedge (Cyperus difformis); test: Test B flooded paddy test; conditions: for Plant response rating, Sedge, Umbrella: Flood (flooded paddy test), 13 to 15 days
How it was run: as §2

[12] = 62 g ai/ha, postemergence, 0 is no effect, 100 is complete control, 13 to 15 days
[13] = 31 g ai/ha, 0 to 100 scale (0 no effect, 100 complete control)
[14] = 125 g ai/ha, scale 0 to 100 (0 no effect, 100 complete control)
[15] = 250 g ai/ha, scale 0 to 100 (0 no effect, 100 complete control), 13 to 15 days
[16] = 250 g ai/ha, flooded paddy test, visual rating on 0 to 100 scale (0 no effect, 100 complete control) after 13 to 15 days
[17] = 62 g ai/ha, scale of 0 to 100 where 0 is no effect and 100 is complete control
[18] = 125 g ai/ha, scale 0 to 100, 0 is no effect, 100 is complete control
[19] = Flood, 31 g ai/ha, scale 0 to 100 (0 no effect, 100 complete control)

Structure (SMILES): CCCCn1c(-c2cccc(Cl)c2)ncc(C(=O)C2=C(O)CCCC2=O)c1=O [Compound 146]
- Bermudagrass plant response rating (0 to 100 scale) [1, 12]: 90
- Plant response rating, Bermudagrass [1, 13]: 85
- Plant response rating, Bermudagrass [1, 14]: 100
- Plant response rating, Bermudagrass [1, 15]: 100
- Cocklebur plant response rating (0 to 100 scale) [2, 12]: 25
- Plant response rating, Cocklebur ([2]; Postemergence, 31 g ai/ha, 0 to 100 scale (0 no effect, 100 complete control)): 10
- Goosegrass plant response rating (0 to 100 scale) [3, 12]: 90
- Plant response rating, Goosegrass [3, 13]: 75
- Plant response rating, Goosegrass [3, 14]: 95
- Plant response rating, Goosegrass [3, 15]: 95
- Foxtail, Green plant response rating (0 to 100 scale) [4, 12]: 55
- Plant response rating, Foxtail, Green [4, 13]: 50
- Plant response rating, Foxtail, Green [4, 14]: 80
- Plant response rating, Foxtail, Green [4, 15]: 90
- Lambsquarters plant response rating (0 to 100 scale) [5, 12]: 98
- Plant response rating, Lambsquarters [5, 13]: 95
- Plant response rating, Lambsquarters [5, 14]: 100
- Plant response rating, Lambsquarters [5, 15]: 100
- Crabgrass, Large plant response rating (0 to 100 scale) [6, 12]: 75
- Plant response rating, Crabgrass, Large [6, 13]: 65
- Plant response rating, Crabgrass, Large [6, 14]: 85
- Plant response rating, Crabgrass, Large [6, 15]: 98
- Morningglory plant response rating (0 to 100 scale) [7, 12]: 15
- Plant response rating, Morningglory [7, 13]: 0
- Plant response rating, Morningglory [7, 14]: 85
- Plant response rating, Morningglory [7, 15]: 95
- Wheat plant response rating (0 to 100 scale) [8, 12]: 0
- Plant response rating, Wheat [8, 13]: 0
- Plant response rating, Wheat [8, 14]: 15
- Plant response rating, Wheat [8, 15]: 45
- Oat, Wild plant response rating (0 to 100 scale) (wild oat (Avena fatua); [12]): 20
- Plant response rating, Oat, Wild (wild oat (Avena fatua); [13]): 0
- Plant response rating, Oat, Wild (wild oat (Avena fatua); [14]): 50
- Plant response rating, Oat, Wild (wild oat (Avena fatua); [15]): 70
- Nutsedge, Yellow plant response rating (0 to 100 scale) [9, 12]: 10
- Plant response rating, Nutsedge, Yellow [9, 13]: 5
- Plant response rating, Nutsedge, Yellow [9, 14]: 20
- Plant response rating, Nutsedge, Yellow [9, 15]: 40
- Plant response rating, Flood, Barnyardgrass [10, 16]: 30
- Plant response rating, Barnyardgrass [10, 17]: 0
- Plant response rating, Barnyardgrass [10, 18]: 0
- Barnyardgrass plant response rating [10, 19]: 0
- Plant response rating, Flood, Sedge, Umbrella [11, 16]: 90
- Plant response rating, Sedge, Umbrella [11, 17]: 50
- Plant response rating, Sedge, Umbrella [11, 18]: 80
- Sedge, Umbrella plant response rating [11, 19]: 0
